Assay results taken from PubChem BioAssay AID1963836 (Molecular Pharmacology Branch, DTP, NCI, 2024).

Test system: 857933-349-R-J2-PDC complex spheroid viability
Assay: Anticancer human tumor 857933-349-R-J2-PDC patient-derived colon adenocarcinoma cell line growth inhibition [POLQ]
Details: for IC50: curve of first compound; for viability, T/C: stronger effect = lower value
Procedure, shortened: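 Patient-derived tumour cells were co-cultured with HUVEC and mesenchymal stem cells as multicellular spheroids at 37 °C. They were treated with POLQ inhibitors (novobiocin, ART-558, RP6685) alone or combined with other agents. Top concentrations were at or near clinical Cmax (otherwise 10 microM; SN-38 at 1 microM), decreasing in half-log steps.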

[1] = second compound 0.0316 µM, first compound 0.0316 µM
[2] = second compound 0.0316 µM, first compound 0.1 µM
[3] = second compound 0.0316 µM, first compound 0.316 µM
[4] = second compound 0.0316 µM, first compound 1 µM
[5] = second compound 0.0316 µM, first compound 3.16 µM
[6] = second compound 0.0316 µM, first compound 10 µM
[7] = second compound 0.1 µM, first compound 0.0316 µM
[8] = second compound 0.1 µM, first compound 0.1 µM
[9] = second compound 0.1 µM, first compound 0.316 µM
[10] = second compound 0.1 µM, first compound 1 µM
[11] = second compound 0.1 µM, first compound 3.16 µM
[12] = second compound 0.1 µM, first compound 10 µM
[13] = second compound 0.316 µM, first compound 0.0316 µM
[14] = second compound 0.316 µM, first compound 0.1 µM
[15] = second compound 0.316 µM, first compound 0.316 µM
[16] = second compound 0.316 µM, first compound 1 µM
[17] = second compound 0.316 µM, first compound 3.16 µM
[18] = second compound 0.316 µM, first compound 10 µM
[19] = second compound 1 µM, first compound 0.0316 µM
[20] = second compound 1 µM, first compound 0.1 µM
[21] = second compound 1 µM, first compound 0.316 µM
[22] = second compound 1 µM, first compound 1 µM
[23] = second compound 1 µM, first compound 3.16 µM
[24] = second compound 1 µM, first compound 10 µM
[25] = second compound 3.16 µM, first compound 0.0316 µM
[26] = second compound 3.16 µM, first compound 0.1 µM
[27] = second compound 3.16 µM, first compound 0.316 µM
[28] = second compound 3.16 µM, first compound 1 µM
[29] = second compound 3.16 µM, first compound 3.16 µM
[30] = second compound 3.16 µM, first compound 10 µM
[31] = second compound 10 µM, first compound 0.0316 µM
[32] = second compound 10 µM, first compound 0.1 µM
[33] = second compound 10 µM, first compound 0.316 µM
[34] = second compound 10 µM, first compound 1 µM
[35] = second compound 10 µM, first compound 3.16 µM
[36] = second compound 10 µM, first compound 10 µM
[37] = second compound 0.0316 µM, first compound 0.00316 µM
[38] = second compound 0.0316 µM, first compound 0.01 µM
[39] = second compound 0.1 µM, first compound 0.00316 µM
[40] = second compound 0.1 µM, first compound 0.01 µM
[41] = second compound 0.316 µM, first compound 0.00316 µM
[42] = second compound 0.316 µM, first compound 0.01 µM
[43] = second compound 1 µM, first compound 0.00316 µM
[44] = second compound 1 µM, first compound 0.01 µM
[45] = second compound 3.16 µM, first compound 0.00316 µM
[46] = second compound 3.16 µM, first compound 0.01 µM
[47] = second compound 10 µM, first compound 0.00316 µM
[48] = second compound 10 µM, first compound 0.01 µM
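Further: spheroids exposed to compounds for seven days before readout.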

SMILES: O=c1[nH]cc(F)c(=O)[nH]1 + Cc1cccc(N(C)C(=O)C2C(O)CCN2c2nc(C)cc(C(F)(F)F)c2C#N)c1
- IC50 (second compound 0.0316 µM): 2470 nM
- IC50 (second compound 0.1 µM): 3060 nM
- IC50 (second compound 0.316 µM): 3100 nM
- IC50 (second compound 1 µM): 3340 nM
- IC50 (second compound 3.16 µM): 2930 nM
- IC50 (second compound 10 µM): 2100 nM
- viability, T/C [1]: 90.7%
- viability, T/C [2]: 85.8%
- viability, T/C [3]: 95.5%
- viability, T/C [4]: 77.8%
- viability, T/C [5]: 42.6%
- viability, T/C [6]: 29.5%
- viability, T/C [7]: 123%
- viability, T/C [8]: 109%
- viability, T/C [9]: 106%
- viability, T/C [10]: 74.9%
- viability, T/C [11]: 50%
- viability, T/C [12]: 30%
- viability, T/C [13]: 102%
- viability, T/C [14]: 105%
- viability, T/C [15]: 80.3%
- viability, T/C [16]: 82%
- viability, T/C [17]: 43.9%
- viability, T/C [18]: 34.8%
- viability, T/C [19]: 94.3%
- viability, T/C [20]: 95.3%
- viability, T/C [21]: 77.4%
- viability, T/C [22]: 85.8%
- viability, T/C [23]: 50.7%
- viability, T/C [24]: 30.6%
- viability, T/C [25]: 93.8%
- viability, T/C [26]: 92.6%
- viability, T/C [27]: 85.8%
- viability, T/C [28]: 69.7%
- viability, T/C [29]: 49.1%
- viability, T/C [30]: 27.6%
- viability, T/C [31]: 90.8%
- viability, T/C [32]: 122%
- viability, T/C [33]: 99.2%
- viability, T/C [34]: 68.9%
- viability, T/C [35]: 41.9%
- viability, T/C [36]: 29.3%

SMILES: O=C(c1cc(Cc2n[nH]c(=O)c3ccccc23)ccc1F)N1CCN(C(=O)C2CC2)CC1 + Cc1cccc(N(C)C(=O)C2C(O)CCN2c2nc(C)cc(C(F)(F)F)c2C#N)c1
- IC50 (second compound 0.0316 µM): > 10000 nM
- IC50 (second compound 0.1 µM): > 10000 nM
- IC50 (second compound 0.316 µM): > 10000 nM
- IC50 (second compound 1 µM): > 10000 nM
- IC50 (second compound 3.16 µM): > 10000 nM
- IC50 (second compound 10 µM): > 10000 nM
- viability, T/C [1]: 109%
- viability, T/C [2]: 99.4%
- viability, T/C [3]: 85.3%
- viability, T/C [4]: 72.5%
- viability, T/C [5]: 93.4%
- viability, T/C [6]: 84.7%
- viability, T/C [7]: 109%
- viability, T/C [8]: 101%
- viability, T/C [9]: 93.8%
- viability, T/C [10]: 83.8%
- viability, T/C [11]: 69.7%
- viability, T/C [12]: 72.9%
- viability, T/C [13]: 107%
- viability, T/C [14]: 98.1%
- viability, T/C [15]: 70.5%
- viability, T/C [16]: 96.2%
- viability, T/C [17]: 89.8%
- viability, T/C [18]: 80.3%
- viability, T/C [19]: 84.7%
- viability, T/C [20]: 80.9%
- viability, T/C [21]: 86.2%
- viability, T/C [22]: 79%
- viability, T/C [23]: 73.7%
- viability, T/C [24]: 82.6%
- viability, T/C [25]: 67%
- viability, T/C [26]: 79.2%
- viability, T/C [27]: 81.6%
- viability, T/C [28]: 87.2%
- viability, T/C [29]: 72.8%
- viability, T/C [30]: 92.2%
- viability, T/C [31]: 86.5%
- viability, T/C [32]: 110%
- viability, T/C [33]: 82.6%
- viability, T/C [34]: 84%
- viability, T/C [35]: 71.3%
- viability, T/C [36]: 79.9%

SMILES: COc1cccc(OCCCN)c1-c1cc(Nc2cnc(C#N)cn2)n[nH]1 + Nc1ccc(C#CCN(C(=O)Cc2ncc(C(F)(F)F)cc2C(F)(F)F)c2ccc(F)cc2)nn1
- IC50 (second compound 0.0316 µM): > 1000 nM
- IC50 (second compound 0.1 µM): 685 nM
- IC50 (second compound 0.316 µM): > 1000 nM
- IC50 (second compound 1 µM): 670 nM
- IC50 (second compound 3.16 µM): > 1000 nM
- IC50 (second compound 10 µM): > 1000 nM
- viability, T/C [37]: 101%
- viability, T/C [38]: 113%
- viability, T/C [1]: 83.8%
- viability, T/C [2]: 68.4%
- viability, T/C [3]: 58.9%
- viability, T/C [4]: 50.2%
- viability, T/C [39]: 104%
- viability, T/C [40]: 107%
- viability, T/C [7]: 76.9%
- viability, T/C [8]: 88.8%
- viability, T/C [9]: 58.2%
- viability, T/C [10]: 44.3%
- viability, T/C [41]: 105%
- viability, T/C [42]: 101%
- viability, T/C [13]: 88.2%
- viability, T/C [14]: 62.1%
- viability, T/C [15]: 57.8%
- viability, T/C [16]: 54.4%
- viability, T/C [43]: 109%
- viability, T/C [44]: 88.5%
- viability, T/C [19]: 80.5%
- viability, T/C [20]: 70%
- viability, T/C [21]: 53.9%
- viability, T/C [22]: 47.1%
- viability, T/C [45]: 101%
- viability, T/C [46]: 96.9%
- viability, T/C [25]: 81.9%
- viability, T/C [26]: 66.8%
- viability, T/C [27]: 51.2%
- viability, T/C [28]: 54.9%
- viability, T/C [47]: 86.8%
- viability, T/C [48]: 102%
- viability, T/C [31]: 76.9%
- viability, T/C [32]: 69.8%
- viability, T/C [33]: 57%
- viability, T/C [34]: 54%

SMILES: C=CCn1c(=O)c2cnc(Nc3ccc(N4CCN(C)CC4)cc3)nc2n1-c1cccc(C(C)(C)O)n1 + Nc1ccc(C#CCN(C(=O)Cc2ncc(C(F)(F)F)cc2C(F)(F)F)c2ccc(F)cc2)nn1
- IC50 (second compound 0.0316 µM): > 1000 nM
- IC50 (second compound 0.1 µM): > 1000 nM
- IC50 (second compound 0.316 µM): > 1000 nM
- IC50 (second compound 1 µM): > 1000 nM
- IC50 (second compound 3.16 µM): > 1000 nM
- IC50 (second compound 10 µM): > 1000 nM
- viability, T/C [37]: 105%
- viability, T/C [38]: 98.7%
- viability, T/C [1]: 91.4%
- viability, T/C [2]: 105%
- viability, T/C [3]: 88.8%
- viability, T/C [4]: 74.7%
- viability, T/C [39]: 105%
- viability, T/C [40]: 122%
- viability, T/C [7]: 95.4%
- viability, T/C [8]: 91.9%
- viability, T/C [9]: 88.1%
- viability, T/C [10]: 73.8%
- viability, T/C [41]: 60.7%
- viability, T/C [42]: 95.8%
- viability, T/C [13]: 94%
- viability, T/C [14]: 88.7%
- viability, T/C [15]: 103%
- viability, T/C [16]: 75.4%
- viability, T/C [43]: 96.5%
- viability, T/C [44]: 93.6%
- viability, T/C [19]: 90.6%
- viability, T/C [20]: 106%
- viability, T/C [21]: 102%
- viability, T/C [22]: 74.4%
- viability, T/C [45]: 102%
- viability, T/C [46]: 93.2%
- viability, T/C [25]: 74.9%
- viability, T/C [26]: 101%
- viability, T/C [27]: 68.8%
- viability, T/C [28]: 75.9%
- viability, T/C [47]: 113%
- viability, T/C [48]: 106%
- viability, T/C [31]: 94%
- viability, T/C [32]: 78.7%
- viability, T/C [33]: 85.9%
- viability, T/C [34]: 66.5%
